Key:
[1] = target: T1, 5-hydroxytryptamine receptor 1A (Homo sapiens, UniProt P08908); assay: biochemical
T1 sequence (P08908 whole entry): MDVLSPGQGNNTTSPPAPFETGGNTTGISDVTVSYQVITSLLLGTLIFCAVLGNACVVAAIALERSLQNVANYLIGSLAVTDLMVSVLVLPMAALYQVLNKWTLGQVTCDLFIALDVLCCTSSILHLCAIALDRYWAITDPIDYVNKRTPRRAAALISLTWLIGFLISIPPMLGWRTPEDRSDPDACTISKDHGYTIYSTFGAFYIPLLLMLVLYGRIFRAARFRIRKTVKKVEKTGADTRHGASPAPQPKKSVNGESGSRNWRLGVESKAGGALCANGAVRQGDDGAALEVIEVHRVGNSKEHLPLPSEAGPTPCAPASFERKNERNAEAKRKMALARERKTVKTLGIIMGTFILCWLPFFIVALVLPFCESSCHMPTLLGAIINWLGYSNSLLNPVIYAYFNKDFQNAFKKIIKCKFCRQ
Description: Displacement of [3H]8-OH-DPAT from human 5HT1A receptor expressed in CHO cells

[2] = target: T1, 5-hydroxytryptamine receptor 1A
Description: Antagonist activity at human 5HT1A receptor expressed in CHO cells assessed as stimulation of [35S]GTPgammaS binding

[3] = target: Sodium-dependent serotonin transporter (Rattus norvegicus, UniProt P31652)
Description: Displacement of [3H]paroxetine from 5HT transporter in rat cortical membrane

[4] = target: T2, 5-hydroxytryptamine receptor 1A (Homo sapiens) (UniProt P08908); assay: Antagonist activity at human 5HT1A receptor expressed in CHO cells assessed as inhibition of [35S]GTPgammaS binding relative to control; assay type: functional, cell-based
T2 sequence (whole entry): T1 sequence (P08908 whole entry)

[5] = target: Sodium-dependent serotonin transporter (Rattus norvegicus) (UniProt P31652); assay: Ratio Ki for drug to Ki for (2S)-8-Methyl-2-{[4-(6-nitroquinolin-2-yl)piperazin-1-yl]- methyl}-2,3-dihydro[1,4]dioxino[2,3-f ]quinoline against 5HT transporter in rat cortical membrane; assay type: cell membranes
[6] = target: Sodium-dependent serotonin transporter (Homo sapiens, UniProt P31645); assay: Antagonist activity at human 5HT transporter expressed in staurosporine treated human JAR cells; assay type: functional, cell-based
Sequence of Sodium-dependent serotonin transporter (Homo sapiens, UniProt P31645) (P31645 whole entry): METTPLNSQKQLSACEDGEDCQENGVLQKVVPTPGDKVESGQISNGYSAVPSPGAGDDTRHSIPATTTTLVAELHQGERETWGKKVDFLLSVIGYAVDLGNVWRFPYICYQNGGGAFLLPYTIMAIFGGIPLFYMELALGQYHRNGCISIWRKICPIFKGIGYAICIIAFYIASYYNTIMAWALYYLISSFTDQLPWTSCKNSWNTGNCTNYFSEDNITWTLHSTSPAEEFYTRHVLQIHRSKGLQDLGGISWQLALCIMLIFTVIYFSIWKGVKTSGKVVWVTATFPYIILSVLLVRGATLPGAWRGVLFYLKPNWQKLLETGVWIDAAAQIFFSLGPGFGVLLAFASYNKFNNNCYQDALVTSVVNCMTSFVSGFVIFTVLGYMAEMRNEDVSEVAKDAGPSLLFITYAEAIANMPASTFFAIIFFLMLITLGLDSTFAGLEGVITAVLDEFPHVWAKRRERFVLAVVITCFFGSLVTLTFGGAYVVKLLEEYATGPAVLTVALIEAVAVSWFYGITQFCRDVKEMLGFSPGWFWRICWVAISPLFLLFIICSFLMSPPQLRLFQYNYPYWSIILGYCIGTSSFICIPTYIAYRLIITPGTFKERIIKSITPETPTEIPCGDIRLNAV

Sequence of Sodium-dependent serotonin transporter (Rattus norvegicus, UniProt P31652) (P31652 whole entry): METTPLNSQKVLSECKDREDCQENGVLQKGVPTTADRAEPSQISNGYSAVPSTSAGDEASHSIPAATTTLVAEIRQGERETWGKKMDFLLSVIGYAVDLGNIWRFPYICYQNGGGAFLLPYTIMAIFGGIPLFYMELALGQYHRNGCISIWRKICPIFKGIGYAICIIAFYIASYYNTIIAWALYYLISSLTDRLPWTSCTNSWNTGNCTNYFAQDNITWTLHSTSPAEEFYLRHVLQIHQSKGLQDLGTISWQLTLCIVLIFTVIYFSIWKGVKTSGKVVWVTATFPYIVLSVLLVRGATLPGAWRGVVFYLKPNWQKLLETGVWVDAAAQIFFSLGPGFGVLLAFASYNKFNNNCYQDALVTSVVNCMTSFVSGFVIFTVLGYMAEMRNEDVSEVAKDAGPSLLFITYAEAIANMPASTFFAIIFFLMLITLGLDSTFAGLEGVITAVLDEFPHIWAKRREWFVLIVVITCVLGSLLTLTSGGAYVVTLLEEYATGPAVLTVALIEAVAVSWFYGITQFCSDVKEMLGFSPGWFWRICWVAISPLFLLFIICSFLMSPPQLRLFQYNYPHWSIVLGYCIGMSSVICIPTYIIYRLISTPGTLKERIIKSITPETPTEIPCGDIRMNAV
Sequence of Sodium-dependent serotonin transporter (Rattus norvegicus) (P31652 whole entry): as above

Structure (SMILES)	Ki [1]	IC50 [2]	Ki [3]	Imax [4]	Ratio Ki [5]	IC50 [6]
Cc1ccc2c3c(ccc2n1)OC[C@H](CN1CCN(c2ccc4cc(C#N)ccc4n2)C[C@H]1C)O3	2.8 nM	180 nM	89.6 nM	92%	–	–
Cc1ccc2c3c(ccc2n1)OC[C@H](CN1CCN(c2ccc4ccccc4n2)C[C@H]1C)O3	–	117 nM	–	85%	–	–
Cc1ccc2c3c(ccc2n1)OC[C@H](CN1CC=C(c2c[nH]c4ccccc24)CC1)O3	3.02 nM	56.7 nM	2.34 nM	98.3%	–	145 nM
Cc1ccc2c3c(ccc2n1)OC[C@H](CN1CCN(c2ccc4ccccc4n2)C[C@@H]1C)O3	–	1900 nM	10.3 nM	76.5%	–	–
Cc1ccc2c3c(ccc2n1)OC[C@H](CN1CCCN(c2ccc4ccccc4n2)CC1)O3	6.8 nM	70 nM	7.4 nM	58%	–	–
Cc1ccc2c3c(ccc2n1)OC[C@H](CN1CCCN(c2ccc4cc(C#N)ccc4n2)CC1)O3	2 nM	58 nM	–	53%	–	–

Continued, in another order:

Ki [1]	IC50 [2]	Ki [3]	Imax [4]	Ratio Ki [5]	Structure (SMILES)	IC50 [6]
172 nM	588 nM	148 nM	85%	–	Cc1ccc2c3c(ccc2n1)OC[C@H](CN1CCN(c2ccc4cc(OC(F)(F)F)ccc4n2)CC1)O3	–
–	4870 nM	75 nM	100%	–	Cc1ccc2c3c(ccc2n1)OC[C@H](CN1CCN(c2ccc4ccccc4n2)CC1)O3	–
–	294 nM	–	79%	9	Cc1ccc2c3c(ccc2n1)OC[C@H](CN1CCN(c2ccc4cc([N+](=O)[O-])ccc4n2)CC1)O3	–
–	781 nM	0.88 nM	62%	–	Cc1ccc2c3c(ccc2n1)OC[C@H](CN1CCN(c2ccc4cc(Cl)ccc4n2)CC1)O3	–
–	156 nM	12.7 nM	96%	–	Cc1ccc2c3c(ccc2n1)OC[C@H](CN1CCN(c2ccc4cc(Br)ccc4n2)CC1)O3	–
32.9 nM	2170 nM	66 nM	100%	–	Cc1ccc2c3c(ccc2n1)OC[C@H](CN1CCN(c2ccc4cc(F)ccc4n2)CC1)O3	–
1.5 nM	70 nM	3.9 nM	74%	–	Cc1ccc2c3c(ccc2n1)OC[C@H](CN1CCCN(c2ccc4cc(F)ccc4n2)CC1)O3	–
–	164 nM	17 nM	100%	–	Cc1ccc2c3c(ccc2n1)OC[C@H](CN1CCN(c2ccc4cc(C(N)=O)ccc4n2)CC1)O3	–
